Laboratory results: patent publication EP4813972A1, “CRYSTAL FORM OF BENZENE SULFONATE CONTAINING PIPERIDINE RING COMPOUND, AND PREPARATION METHOD THEREFOR AND USE THEREOF” (Shanghai Curegene Pharmaceutical Co., Ltd., priority 2023, dated 2025)
In brackets after ≈: the same amount, converted by molar mass.

Tests used:
[1] = Stability study of crystal forms (crystal form status by XRPD after storage); assay type: physicochemical; settings: 14 days
Method: Test method: The sample was prepared on a zero-background silicon wafer by gently pressing to obtain a flat surface. About 10-20 mg of a sample was used for XRPD analysis.

[2] = Solubility study of crystal forms (aqueous HCl pH 1 / 20 mM phosphate buffer pH about 7, HPLC analysis); assay type: physicochemical
Method: The detailed parameters were as follows:
An aqueous HCl solution at pH 1 was prepared. […] After dissolution by stirring, the solution was adjusted to pH = 1 with 1 N NaOH or 1 N HCl. The timing was started, and after T = 3 h, the pH was measured. […] When T = 4 h, the dissolution status was observed, and a dilution factor was selected according to the dissolution status. 50% ACN was used as a diluent for HPLC analysis. When T = 24 h, the dissolution state was observed. With reference to the concentration data at 4 h and the dissolution state at 24 h, a dilution factor was selected, and HPLC analysis was performed. The solubility was calculated according to the HPLC analysis results described above.
The aqueous HCl solution at pH 1 in the step described above was replaced with a 20 mM phosphate buffer solution at pH of about 7, and the steps described above were repeated. The solubility was calculated.

Crystal form after treatment ([1]; 25 °C/60% RH, open container): Crystal form F1 | Crystal form after treatment ([1]; Sealed container at 2-8 °C): Crystal form F1 | Crystal form after treatment ([1]; Sealed container at 40 °C): Crystal form F1 | Crystal form after treatment ([1]; Sealed container at 60 °C): Crystal form F1 | solubility at 4 h ([2]; 20 mm phosphate buffer, pH=7, 4 h): 9.89 mg/mL (≈ 21 mM) | solubility at 24 h ([2]; 20 mm phosphate buffer, pH=7, 24 h): 6.14 mg/mL (≈ 13 mM) | solubility at 4 h ([2]; aqueous hcl, pH=1, 4 h): 11.5 mg/mL (≈ 24.4 mM) | solubility at 24 h ([2]; aqueous hcl, pH=1, 24 h): 11.4 mg/mL (≈ 24.1 mM) | Dissolution status ([2]; pH=1, 4 h): Clear solution | Dissolution status ([2]; pH=1, 24 h): Clear solution | Dissolution status ([2]; pH=7, 4 h): Clear solution | Dissolution status ([2]; pH=7, 24 h): Clear solution
SMILES: COC(=O)[C@H](c1ccccc1Cl)N1CC[C@@H](SCOC(=O)OC(C)C)/C(=C\C(=O)O)C1 [Crystal form F1]
